Results: article PMC8132073 (Journal of Applied Glycoscience, 2020)

Columns and labels:
BsRhaA = biological target: T1, BsRhaA (Bacillus sp. GL1, UniProt Q93RE8); assay: p-nitrophenol release, absorbance […] nm; type: biochemical; conditions: […] sodium phosphate pH […] °C
T1 sequence (Q93RE8 1-886): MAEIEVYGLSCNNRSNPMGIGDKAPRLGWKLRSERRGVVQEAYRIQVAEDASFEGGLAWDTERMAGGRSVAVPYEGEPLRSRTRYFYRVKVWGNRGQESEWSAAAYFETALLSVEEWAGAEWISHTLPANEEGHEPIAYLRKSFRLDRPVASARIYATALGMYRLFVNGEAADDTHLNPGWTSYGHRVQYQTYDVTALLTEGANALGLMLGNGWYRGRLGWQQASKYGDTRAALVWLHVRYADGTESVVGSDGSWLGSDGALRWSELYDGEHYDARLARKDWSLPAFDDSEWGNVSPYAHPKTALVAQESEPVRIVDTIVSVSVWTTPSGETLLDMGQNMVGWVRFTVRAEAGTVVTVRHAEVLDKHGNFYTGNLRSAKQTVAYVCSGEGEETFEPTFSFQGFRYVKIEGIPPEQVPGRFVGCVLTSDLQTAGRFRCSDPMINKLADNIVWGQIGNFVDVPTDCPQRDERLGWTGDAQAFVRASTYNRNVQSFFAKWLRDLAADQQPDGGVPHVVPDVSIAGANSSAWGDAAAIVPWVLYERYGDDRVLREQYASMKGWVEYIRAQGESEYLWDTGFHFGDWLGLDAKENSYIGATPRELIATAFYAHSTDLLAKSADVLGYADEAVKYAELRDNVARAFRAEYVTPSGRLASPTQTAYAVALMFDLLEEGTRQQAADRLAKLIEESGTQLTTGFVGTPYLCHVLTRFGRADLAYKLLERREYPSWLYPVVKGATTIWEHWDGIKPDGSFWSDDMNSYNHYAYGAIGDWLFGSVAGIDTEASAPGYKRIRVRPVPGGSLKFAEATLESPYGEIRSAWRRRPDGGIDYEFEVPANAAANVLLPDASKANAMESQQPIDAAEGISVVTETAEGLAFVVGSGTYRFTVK

KoRha = biological target: T2, KoRha (Klebsiella oxytoca, UniProt A0A0J9X262); assay: p-nitrophenol release, absorbance […] nm; type: biochemical; conditions: 100 mM sodium phosphate pH 7.0, 30 °C
T2 sequence (A0A0J9X262 1-523): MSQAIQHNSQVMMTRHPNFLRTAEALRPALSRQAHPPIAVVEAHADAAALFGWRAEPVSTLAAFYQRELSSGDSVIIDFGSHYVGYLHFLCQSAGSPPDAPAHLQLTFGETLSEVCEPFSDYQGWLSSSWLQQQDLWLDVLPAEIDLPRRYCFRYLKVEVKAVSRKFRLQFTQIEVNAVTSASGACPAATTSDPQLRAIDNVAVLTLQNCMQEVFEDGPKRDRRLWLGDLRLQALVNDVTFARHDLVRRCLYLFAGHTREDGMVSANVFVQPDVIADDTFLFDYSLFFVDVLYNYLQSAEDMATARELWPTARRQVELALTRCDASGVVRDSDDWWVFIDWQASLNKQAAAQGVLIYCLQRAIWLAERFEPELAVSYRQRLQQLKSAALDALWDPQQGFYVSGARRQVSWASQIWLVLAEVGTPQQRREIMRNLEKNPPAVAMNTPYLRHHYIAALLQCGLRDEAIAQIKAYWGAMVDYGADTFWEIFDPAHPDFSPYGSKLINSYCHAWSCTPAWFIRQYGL

For `C[C@@H]1O[C@@H](Oc2ccc([N+](=O)[O-])cc2)[C@H](O)[C@H](O)[C@H]1O` [pNP-α-L-Rha, 4-nitrophenyl-α-L-rhamnopyranoside], the “p-nitrophenol release, absorbance 405 nm” value (BsRhaA) was “All four α-L-Rha-ases exhibited α-L-rhamnosyl-hydrolyzing and weak α-L-mannosyl-hydrolyzing activity” and the “p-nitrophenol release, absorbance 405 nm” value (KoRha) was “All four α-L-Rha-ases exhibited α-L-rhamnosyl-hydrolyzing and weak α-L-mannosyl-hydrolyzing activity”.
